Data published in paper PMC9369419 (International Journal of Molecular Sciences, 2022).

How the values were obtained:
GluA2(Q)i = target: T1, GluA2(Q)i (Rattus norvegicus, UniProt P19491); test: Intracellular Ca2+ imaging assay, HEK293 cells expressing GluA2(Q)i; type: cell-based; conditions: 10 µM compound, Ca2+ fluorescence, read-out: inhibition of agonist-evoked responses at GluA2
T1 construct: expressed in transfected cells
Excerpt: For the determination of antagonistic activity of compounds at GluK1, GluK3 and GluA2 receptors, stable HEK293 cell lines expressing rat GluK1b(Q), GluK3a, and GluA2(Q)i were created. A polyclonal stable cell line expressing GluK3a was created as described previously. For the creation of polyclonal stable cell lines expressing GluK1and GluA2 receptors, cDNA encoding blasticidin-S deaminase (blas) enzymes were inserted into the pIRES plasmid vector (Clontech, Mountain View, CA, USA) to create the plasmid vector pRES(blas). […] For functional assays, cells were plated into clear-bottomed, black 96-well fluorescence culture plates (Corning, Vordingborg, Denmark), and when >70% confluent, the cells were loaded with 2 μM Fluo 4-AM calcium sensitive dye (Abcam, Cambridge, UK) and used for the imaging of agonist-evoked changes in intracellular Ca^2+ using a FlexStation I plate reader (Molecular Devices, San Jose, CA, USA). […] Changes in dye fluorescence in response to the addition of an agonist solution were then measured at 538 nm using excitation at 485 nm and emission cut-off at 515 nm. Baseline fluorescence was measured for 16 s before the addition of 50 µL agonist solution to each well of the assay plate, and fluorescence was measured for 120 to 160 s after addition of the agonists. […] Responses were determined in at least triplicate at each compound concentration.

GluK5 = target: T2, GluK5 (Rattus norvegicus, UniProt Q63273); test: Radioligand binding at recombinant homomeric GluK5 in Sf9 membranes; conditions: recombinant rat homomeric receptor, [3H]-kainic acid, mean ± SEM
T2 construct: made in house; host or cells: Sf9 insect cells (membranes)
T2 sequence (Q63273 15-979): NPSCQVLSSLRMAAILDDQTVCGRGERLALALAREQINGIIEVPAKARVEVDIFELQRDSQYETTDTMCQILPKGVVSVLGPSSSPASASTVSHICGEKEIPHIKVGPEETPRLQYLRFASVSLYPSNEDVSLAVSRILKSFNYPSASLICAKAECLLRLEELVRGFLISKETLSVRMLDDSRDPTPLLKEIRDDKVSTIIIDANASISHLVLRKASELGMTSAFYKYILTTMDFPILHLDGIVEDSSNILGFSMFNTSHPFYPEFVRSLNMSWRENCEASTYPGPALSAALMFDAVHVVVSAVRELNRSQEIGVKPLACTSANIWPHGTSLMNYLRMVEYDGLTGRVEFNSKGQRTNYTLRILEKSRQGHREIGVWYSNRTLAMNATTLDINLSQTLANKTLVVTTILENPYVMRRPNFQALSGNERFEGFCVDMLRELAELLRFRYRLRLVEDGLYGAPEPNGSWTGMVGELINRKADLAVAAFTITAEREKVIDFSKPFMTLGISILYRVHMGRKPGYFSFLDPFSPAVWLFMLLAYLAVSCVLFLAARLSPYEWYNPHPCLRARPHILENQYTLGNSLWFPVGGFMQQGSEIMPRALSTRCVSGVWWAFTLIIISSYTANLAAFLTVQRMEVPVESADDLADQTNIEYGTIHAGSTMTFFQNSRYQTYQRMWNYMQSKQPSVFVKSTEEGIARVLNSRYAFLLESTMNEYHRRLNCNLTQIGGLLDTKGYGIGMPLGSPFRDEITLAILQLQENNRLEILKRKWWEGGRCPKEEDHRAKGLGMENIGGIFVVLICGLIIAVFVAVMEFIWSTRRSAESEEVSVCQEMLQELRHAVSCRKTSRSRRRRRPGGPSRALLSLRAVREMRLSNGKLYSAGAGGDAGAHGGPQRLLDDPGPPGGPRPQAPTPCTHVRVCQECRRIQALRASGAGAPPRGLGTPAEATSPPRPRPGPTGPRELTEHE
Protocol: Ligand binding affinities at recombinant rat homomeric GluA2, GluK1−3, and GluK5 were determined as previously detailed. […] The filters were dried at 70 °C for 1 h, and 50 μL/well Microscint 20 (PerkinElmer, Waltham, MA, USA) was added. Radioactivity was detected with a TopCounter (PerkinElmer, Waltham, MA, USA). GluA2 and GluK5 assays were filtered on GF/C type filters using Millipore 12-well filtration manifolds (Merck Life Science, Søborg, Denmark) and washed twice with ice-cold assay buffer. Filters were placed in pony vials (PerkinElmer, Waltham, MA, USA), 3 mL of Ultima Gold scintillation fluid (PerkinElmer, Waltham, MA, USA) was added, and DPM (disintegrations per minute) were determined using a TriCarb 2900 scintillation counter (PerkinElmer, Waltham, MA, USA).
All competition curves (n ≥ 3 per ligand) were determined in triplicate. Data were analyzed using GraphPad Prism 6 (GraphPad Software, San Diego, CA, USA) to determine ligand affinity (Ki) and Hill coefficient (nH) using the one-site Ki and four-parameter logistics equations, respectively.

T1 sequence (P19491 22-883 isoform P19491-2 limits assumed): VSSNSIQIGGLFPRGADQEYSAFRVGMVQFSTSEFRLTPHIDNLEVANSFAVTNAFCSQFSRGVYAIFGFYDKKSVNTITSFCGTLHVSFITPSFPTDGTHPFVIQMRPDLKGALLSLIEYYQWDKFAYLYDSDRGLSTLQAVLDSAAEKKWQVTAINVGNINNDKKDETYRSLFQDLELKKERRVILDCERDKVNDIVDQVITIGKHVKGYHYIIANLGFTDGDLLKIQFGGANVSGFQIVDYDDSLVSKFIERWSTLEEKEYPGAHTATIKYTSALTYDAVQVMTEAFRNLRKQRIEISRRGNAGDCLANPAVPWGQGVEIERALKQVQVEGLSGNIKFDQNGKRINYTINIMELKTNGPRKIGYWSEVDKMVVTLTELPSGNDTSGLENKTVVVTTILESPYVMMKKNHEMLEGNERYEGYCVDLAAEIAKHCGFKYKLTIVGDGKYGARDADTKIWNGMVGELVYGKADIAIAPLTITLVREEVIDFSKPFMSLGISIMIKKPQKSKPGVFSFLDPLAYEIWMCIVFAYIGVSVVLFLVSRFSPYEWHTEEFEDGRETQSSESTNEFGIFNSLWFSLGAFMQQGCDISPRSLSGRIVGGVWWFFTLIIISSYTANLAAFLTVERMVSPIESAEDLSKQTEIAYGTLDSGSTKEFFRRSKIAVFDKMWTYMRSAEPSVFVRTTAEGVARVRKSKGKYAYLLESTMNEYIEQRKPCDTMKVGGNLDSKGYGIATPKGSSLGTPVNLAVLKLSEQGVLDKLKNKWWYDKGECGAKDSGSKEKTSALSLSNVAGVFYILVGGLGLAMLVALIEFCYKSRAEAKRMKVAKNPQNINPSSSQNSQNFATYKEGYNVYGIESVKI

inhibition at 10 µM (GluA2(Q)i): < 5%
Ki (GluK5): > 100 µM
SMILES: O=C(Nn1c(=O)c(=O)[nH]c2cc(C#Cc3cnc4cccnn34)ccc21)c1ccccc1 [Compound 28]
